Assay results: US20210315893A1 (Galapagos NV, priority 2017, published 2021)

Tests used:
HFL-1 cells [1] = test: IL8 assay in the presence of Human Serum Albumin; conditions: HFL1, read-out: HSA IL8 EC50
Description: To evaluate the influence of plasma protein binding of S1P as well as compound, the S1P induced IL-8 levelswereevaluatedin presence of Human Serum Albumin (HSA, equivalent to 40% human serum).
Human Fetal Lung cells (HFL-1) are seeded in 96 well plates in growth medium (F12K+10% heat inactivated FBS+1% Pen/strep). […] On day three, compounds are added (10 point serial dilution, 30 μM highest concentration, 1/3 dilution, 0.3% DMSO final) and plates are incubated for 1 h at 37° C., 5% CO2. Subsequently S1P at 5 μM final concentration is added and plates are incubated for 16 to 24 h at 37° C., 5% COafter which the supernatant was collected. IL-8 levels in the supernatant are determined with the IL-8 ELISA of R&D systems.

HFL-1 cells [2] = test: IL-8 production assay (S1P induced IL-8); type: cell-based; conditions: Homo sapiens, HFL1; S1P (1 μM) induced IL-8 in HFL-1 cells, starvation medium without HSA; read-out: IL8 EC50
Description: This assay is designed to test inhibitory activity of compounds on S1P induced IL-8 on HFL-1 cells, ahuman fetal lung fibroblast cell line.
Human Fetal Lung cells (HFL-1) are seeded in 96 well plates in growth medium (F12K+10% heat inactivated FBS+l1% Pen/strep). After overnight incubation at 37° C., […] cells are refreshed with starvation medium without HSA (F12K+1% FBS+1% Pen/strep). On day three, compounds are added (10 point serial dilution, 30 μM highest concentration, 1/3 dilution, 0.3% DMSO final) and plates are incubated for one h at 37° C., 5% CO2. Subsequently S1P at 1 μM final concentration is added and plates are incubated for 16 to24 h at 37° C., […] after which the supermatant was collected. IL-8 levels in the supernatant are determined with the IL-8 ELISA of R&D systems.

S1PR2 = target: T1, S1PR2 (Homo sapiens, UniProt O95136); test: S1PR2 binding assay (competition with radioactively labeled S1P, SpA); conditions: membranes from stable cell line over expressing S1PR2, SpA beads; read-out: S1P2 EC50 (nM), S1PR2 binding EC50
T1 construct: expressed in transfected cells
T1 sequence (O95136 whole entry): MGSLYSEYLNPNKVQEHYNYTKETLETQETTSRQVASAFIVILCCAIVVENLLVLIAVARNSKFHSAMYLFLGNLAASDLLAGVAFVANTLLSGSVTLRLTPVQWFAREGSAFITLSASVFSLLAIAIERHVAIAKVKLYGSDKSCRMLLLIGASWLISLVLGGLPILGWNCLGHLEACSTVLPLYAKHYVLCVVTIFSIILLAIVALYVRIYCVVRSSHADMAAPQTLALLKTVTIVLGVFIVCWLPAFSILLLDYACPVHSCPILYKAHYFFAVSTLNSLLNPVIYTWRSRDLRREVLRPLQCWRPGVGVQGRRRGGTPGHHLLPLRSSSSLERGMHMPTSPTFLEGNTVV
How it was run: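 Competition with [3H]S1P for membranes from a stable S1PR2-overexpressing cell line, 20 μg/well, captured on PVT-WGA SPA beads, in 20 mM Tris pH 7.5, 10 mM MgCl2, 100 mM NaCl, 0.4% fatty-acid-free BSA, 1 mM Na3VO4. 2 h at room temperature, then centrifugation and scintillation counting.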

[3] = target: T2, human GPCR sphingosine 1-phosphate receptor 2 (Homo sapiens, UniProt O95136); test: S1PR2 antagonist Ca2+ flux assay; type: cell-based; conditions: antagonist mode, CHO-S1PR2 cells, S1P at EC80, Ca2+ fluorescence; read-out: S1P2 EC50 (nM), S1P2 antagonist EC50
T2 construct: host or cells: CHO
T2 sequence (O95136 whole entry): as above
How it was run: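 CHO cells stably expressing human S1PR2, serum-starved 1 h, Fluo8-loaded; compound-evoked Ca2+ fluorescence read 3 min (agonist mode), then after 15 min S1P at EC80 added and read 3 min (antagonist mode). Max/baseline fluorescence ratios normalised to vehicle and S1P EC100 or EC50 controls; EC50 derived.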

| Compound | EC50 (HFL-1 cells [1]) | EC50 (HFL-1 cells [2]) | EC50 (S1PR2) | EC50 [3] |
| --- | --- | --- | --- | --- |
| CS(=O)(=O)c1ccc2c(=O)n(CC(=O)N3CCOCC3)nc(Cc3nc4cc(Cl)c(OCC(F)F)cc4[nH]3)c2c1 [Compound 41, 4-[[5-chloro-6-(2,2-difluoroethoxy)-1H-benzimidazol-2-yl]methyl]-6-methylsulfonyl-2-(2-morpholino-2-oxo-ethyl)phthalazin-1-one] | 2.78 µM | 0.685 µM | 1310 nM | 1050 nM |
| COc1ccc2c(Cc3nc4cc(Cl)c(OCC(F)F)cc4[nH]3)nn(CC(=O)N3CCOCC3)c(=O)c2c1 [Compound 31, 4-[[5-chloro-6-(2,2-difluoroethoxy)-1H-benzimidazol-2-yl]methyl]-7-methoxy-2-(2-morpholino-2-oxo-ethyl)phthalazin-1-one] | 0.0726 µM | 0.011 µM | 93.2 nM | 9.11 nM |
| N#Cc1cc2[nH]c(Cc3nn(C(CN4CCC4)C(=O)O)c(=O)c4ccccc34)nc2cc1OCC(F)F (stereo not drawn) [Compound 75, 3-(azetidin-1-yl)-2-[4-[[6-cyano-5-(2,2-difluoroethoxy)-1H-benzimidazol-2-yl]methyl]-1-oxo-phthalazin-2-yl]propanoic acid] | 1.3 µM | 0.938 µM | 2920 nM | 3850 nM |
| CC(C)(C)NC(=O)Cn1nc(Cc2nc3cc(OCC(F)F)c(C#N)cc3[nH]2)c2c(c1=O)CCCC2 [Compound 203, N-tert-butyl-2-[4-[[6-cyano-5-(2,2-difluoroethoxy)-1H-benzimidazol-2-yl]methyl]-1-oxo-5,6,7,8-tetrahydrophthalazin-2-yl]acetamide] | 1.94 µM | 1.02 µM | 343 nM | 148 nM |
| N#Cc1cc2nc(Cc3nn(CC(=O)O)c(=O)c4ccccc34)[nH]c2cc1OCC(F)F [Compound 139] | 0.028 µM | 0.00539 µM | 159 nM | 119 nM |
| CN(C)CC(C(=O)O)n1nc(Cc2nc3cc(OCC(F)F)c(C#N)cc3[nH]2)c2ccccc2c1=O (stereo not drawn) [Compound 74, 2-[4-[[6-cyano-5-(2,2-difluoroethoxy)-1H-benzimidazol-2-yl]methyl]-1-oxo-phthalazin-2-yl]-3-(dimethylamino)propanoic acid] | 0.779 µM | 0.823 µM | 5330 nM | 2660 nM |
| N#Cc1cc2[nH]c(Cc3nn(CC(=O)N4CCOCC4)c(=O)c4ccccc34)nc2cc1OCC1CC1 [Compound 158, 6-(cyclopropylmethoxy)-2-[[3-(2-morpholino-2-oxo-ethyl)-4-oxo-phthalazin-1-yl]methyl]-3H-benzimidazole-5-carbonitrile] | 0.011 µM | 0.0015 µM | 18.6 nM | 3.98 nM |
| N#Cc1cc2nc(Cc3nn(CC(=O)NCC4(CO)COC4)c(=O)c4ccccc34)[nH]c2cc1OCC(F)F [Compound 199, 2-[4-[[5-cyano-6-(2,2-difluoroethoxy)-1H-benzimidazol-2-yl)methyl]-1-oxo-phthalazin-2-yl]-N-[[3-(hydroxymethyl)oxetan-3-yl]methyl]acetamide] | 0.276 µM | 0.0803 µM | 173 nM | 54.6 nM |
| N#Cc1cc2nc(Cc3nn(CC(=O)N4CCC(F)(F)CC4)c(=O)c4ccccc34)[nH]c2cc1OCC(F)F [Compound 188, 6-(2,2-difluoroethoxy)-2-[[3-[2-(4,4-difluoro-1-piperidyl)-2-oxo-ethyl]-4-oxo-phthalazin-1-yl]methyl]-1H-benzimidazole-5-carbonitrile] | 0.663 µM | 0.258 µM | 380 nM | 63.4 nM |
| O=C(Cn1nc(Cc2nc3cc(Cl)c(OCC4CC4)cc3[nH]2)c2ccccc2c1=O)N1CCOCC1 [Compound 166, 4-[[5-chloro-6-(cyclopropylmethoxy)-1H-benzimidazol-2-yl]methyl]-2-(2-morpholino-2-oxo-ethyl)phthalazin-1-one] | 0.0033 µM | 0.00141 µM | 22.4 nM | 9.34 nM |
| N#Cc1cc2[nH]c(Cc3nn(CC(=O)NC4CCCOC4)c(=O)c4ccccc34)nc2cc1OCC(F)F (stereo not drawn) [Compound 184, 2-[4-[[6-cyano-5-(2,2-difluoroethoxy)-1H-benzimidazol-2-yl)methyl]-1-oxo-phthalazin-2-yl]-N-tetrahydropyran-3-yl-acetamide] | 0.0823 µM | 0.0238 µM | 94.3 nM | 25.2 nM |
| N#Cc1cc2[nH]c(Cc3nn(CC(=O)N4CCOCC4)c(=O)c4cccc(C5CC5)c34)nc2cc1OCC(F)F [Compound 54, 2-[[8-cyclopropyl-3-(2-morpholino-2-oxo-ethyl)-4-oxo-phthalazin-1-yl]methyl]-6-(2,2-difluoroethoxy)-3H-benzimidazole-5-carbonitrile] | 0.0411 µM | 0.0322 µM | 93.5 nM | 23.8 nM |
| CN(CC1CCCO1)C(=O)Cn1nc(Cc2nc3cc(OCC(F)F)c(C#N)cc3[nH]2)c2ccccc2c1=O (stereo not drawn) [Compound 180, 2-[4-[[6-cyano-5-(2,2-difluoroethoxy)-1H-benzimidazol-2-yl)methyl]-1-oxo-phthalazin-2-yl]-N-methyl-N-(THF-2-ylmethyl)acetamide] | 0.067 µM | 0.0283 µM | 93.9 nM | 21.1 nM |
| O=C(Cn1nc(Cc2nc3cc(Cl)c(OCC(F)F)cc3[nH]2)c2ccc(N3CCOCC3)cc2c1=O)N1CCOCC1 [Compound 33, 4-[[5-chloro-6-(2,2-difluoroethoxy)-1H-benzimidazol-2-yl]methyl]-7-morpholino-2-(2-morpholino-2-oxo-ethyl)phthalazin-1-one] | 0.129 µM | 0.0156 µM | 378 nM | 86.5 nM |
| CC1(C)CCN(C(=O)Cn2nc(Cc3nc4cc(OCC(F)F)c(C#N)cc4[nH]3)c3ccccc3c2=O)C1 [Compound 233, 6-(2,2-difluoroethoxy)-2-[[3-[2-(3,3-dimethylpyrrolidin-1-yl)-2-oxo-ethyl]-4-oxo-phthalazin-1-yl]methyl]-3H-benzimidazole-5-carbonitrile] | 0.562 µM | 0.0288 µM | 210 nM | 16.8 nM |
| N#Cc1ccc2c(Cc3nc4cc(Cl)c(OCC(F)F)cc4[nH]3)nn(CC(=O)N3CCOCC3)c(=O)c2c1 [Compound 40, 1-[[5-chloro-6-(2,2-difluoroethoxy)-1H-benzimidazol-2-yl]methyl]-3-(2-morpholino-2-oxo-ethyl)-4-oxo-phthalazine-6-carbonitrile] | 0.292 µM | 0.145 µM | 261 nM | 86.4 nM |
| CC(O)(CNC(=O)Cn1nc(Cc2nc3cc(C#N)c(OCC(F)F)cc3[nH]2)c2ccccc2c1=O)C(F)(F)F (stereo not drawn) [Compound 190, 2-[4-[[5-cyano-6-(2,2-difluoroethoxy)-1H-benzimidazol-2-yl]methyl]-1-oxo-phthalazin-2-yl]-N-(3,3,3-trifluoro-2-hydroxy-2-methylpropyl)acetamide] | 0.038 µM | 0.0201 µM | 63.6 nM | 15 nM |
| N#Cc1cc2nc(Cc3nn(CC(=O)N4CCC(F)(F)CC4)c(=O)c4c3CCCC4)[nH]c2cc1OCC(F)F [Compound 185, 6-(2,2-difluoroethoxy)-2-[[3-[2-(4,4-difluoro-1-piperidyl)-2-oxo-ethyl]-4-oxo-5,6,7,8-tetrahydrophthalazin-1-yl]methyl]-1H-benzimidazole-5-carbonitrile] | 0.301 µM | 0.0937 µM | 166 nM | 30.4 nM |
| COC(C)(C)CNC(=O)Cn1nc(Cc2nc3cc(OCC(F)F)c(C#N)cc3[nH]2)c2ccccc2c1=O [Compound 182, 2-[4-[[6-cyano-5-(2,2-difluoroethoxy)-1H-benzimidazol-2-yl]methyl]-1-oxo-phthalazin-2-yl]-N-(2-methoxy-2-methyl-propyl)acetamide] | 0.0547 µM | 0.00966 µM | 53.4 nM | 17.3 nM |
| CN(C)[C@@H]1CCN(C(=O)Cn2nc(Cn3cc4cc(OCC(F)F)c(C#N)cc4n3)c3ccccc3c2=O)C1 [Compound 206] | 2.63 µM | 2.99 µM | 3620 nM | ≥ 19800 nM |
| CN(CCS(C)(=O)=O)C(=O)Cn1nc(Cc2nc3cc(OCC(F)F)c(C#N)cc3[nH]2)c2ccccc2c1=O [Compound 220, 2-[4-[[6-cyano-5-(2,2-difluoroethoxy)-1H-benzimidazol-2-yl)methyl]-1-oxo-phthalazin-2-yl]-N-methyl-N-(2-methylsulfonylethyl)acetamide] | 0.325 µM | 0.102 µM | 320 nM | 52.6 nM |
